As usually defined, the IC50 is the concentration that gives 50% inhibition. Low values mean greater potency in that assay, high ones weaker potency in that assay.

Molecules are shown by their SMILES.

In experiment [1] the target is T1, Cholesteryl ester transfer protein (Homo sapiens, UniProt P11597).
T1 sequence (P11597 whole entry): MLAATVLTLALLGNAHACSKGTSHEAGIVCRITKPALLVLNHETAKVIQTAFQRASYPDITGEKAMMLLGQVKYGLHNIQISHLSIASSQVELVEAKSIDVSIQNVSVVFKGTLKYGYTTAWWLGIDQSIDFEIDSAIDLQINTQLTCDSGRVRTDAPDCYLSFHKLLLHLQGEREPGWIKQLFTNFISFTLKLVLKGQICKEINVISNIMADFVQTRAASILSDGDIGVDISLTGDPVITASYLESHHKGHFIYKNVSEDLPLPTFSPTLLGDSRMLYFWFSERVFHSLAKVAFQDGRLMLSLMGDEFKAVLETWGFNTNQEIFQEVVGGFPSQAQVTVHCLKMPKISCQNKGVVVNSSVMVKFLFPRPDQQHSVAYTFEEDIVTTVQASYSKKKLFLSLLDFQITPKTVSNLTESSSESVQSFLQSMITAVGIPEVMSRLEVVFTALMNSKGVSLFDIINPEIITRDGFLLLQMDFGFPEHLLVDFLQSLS
Nature of the experiment: Inhibition of CETP.

In experiment [2] the test system is Mus musculus. Nature of the experiment: Antiatherogenic activity in transgenic mouse PD model assessed as rise in HDL-cholesterol level at 10 mg/kg. In kind it is functional.

For the compound `Cc1cc(C#N)cc2nc(-c3ccc(CC(O)CN4CCN(c5ccc(C(F)(F)F)cc5)CC4)cc3)oc12` (stereo not given), the half-maximal inhibitory concentration (IC50) in experiment [1] is 874 nM.
`COC(=O)c1cccc(N2CCC(CNC(=O)c3ccc(-c4nc5cc(C#N)cc(C(C)C)c5o4)cc3)CC2)n1` had an IC50 in experiment [1] of 306 nM. This IC50 is about 2.9-fold lower than that of the compound before.
Take `CC(C)c1cc(C#N)cc2nc(-c3ccc(C(=O)NCC4CCN(c5ccc(C(F)(F)F)cn5)CC4)cc3)oc12`: in experiment [1], the 50% inhibitory concentration (IC50) amounted to 40 nM. For the same compound, the Activity in experiment [2] stood at 16 mg/dL.
In experiment [1], `CC(C)c1cc(C#N)cc2nc(-c3ccc(C(=O)NCC4CCN(c5ccc(Br)cn5)CC4)cc3)oc12` had a 50% inhibitory concentration (IC50) of 223 nM.
Same read-out and setting: next, `Cc1cc(C#N)cc2nc(-c3ccc(C(=O)NCC4CCN(c5ccc(C(F)(F)F)cc5)CC4)cc3)oc12`: 300 nM; `CC(C)c1cc(C#N)cc2nc(-c3ccc(C(=O)NCC4CCN(c5ccccn5)CC4)cc3)oc12`: 114 nM.
For `CC(C)c1cc(C#N)cc2nc(-c3ccc(C(=O)NCC4CCN(c5cc(C(F)(F)F)ccn5)CC4)cc3)oc12`, the IC50 in experiment [1] worked out at 61 nM.
`COc1cc(F)c(C(C)C)cc1-c1ccc(N2CCC(CNC(=O)c3ccc(-c4nc5cc(C#N)cc(C(C)C)c5o4)cc3)CC2)nc1`: the IC50 in experiment [1] worked out at 24 nM.
Same read-out and setting: next, `Cc1cccc(-c2ccc(N3CCC(CNC(=O)c4ccc(-c5nc6cc(C#N)cc(C(C)C)c6o5)cc4)CC3)nc2)c1`: 39 nM.
Still for that read-out and setting: for `Cc1cc(C#N)cc2nc(-c3ccc(C(=O)CCN4CCN(c5ccc(C(F)(F)F)cc5)CC4)cc3)oc12` the value was 2050 nM; for `Cc1cc(C#N)cc2nc(-c3ccc(C#CCN4CCN(c5ccc(C(F)(F)F)cc5)CC4)cc3)oc12`, 2170 nM.
On the same count and under the same terms, next, `COc1cccc(N2CCC(CNC(=O)c3ccc(-c4nc5cc(C#N)cc(C(C)C)c5o4)cc3)CC2)n1`: 110 nM; `COc1cccc(Cl)c1-c1ccc(N2CCC(CNC(=O)c3ccc(-c4nc5cc(C#N)cc(C(C)C)c5o4)cc3)CC2)nc1`: 47 nM.
`Cc1cc(C#N)cc2nc(-c3ccc(N4CCC(N5CCN(c6ccc(C(F)(F)F)cc6)CC5)C4=O)cc3)oc12` (stereo not given) came in with a concentration for half-maximal inhibition (IC50) in experiment [1] of 2740 nM.
The same measure, in the same setting: next, `Cc1cc(C#N)cc2nc(-c3ccc(CCCN4CCN(c5ccc(C(F)(F)F)cc5)CC4)cc3)oc12`: 975 nM; `CC(C)c1cc(C#N)cc2nc(-c3ccc(C(=O)NCC4CCN(c5ccc(-c6cc(C(F)(F)F)ccc6OCc6ccccc6)cn5)CC4)cc3)oc12`: 413 nM.
Compound `CC(C)Oc1ccc(F)cc1-c1ccc(N2CCC(CNC(=O)c3ccc(-c4nc5cc(C#N)cc(C(C)C)c5o4)cc3)CC2)nc1` showed an IC50 in experiment [1] of 13 nM. The Activity in experiment [2] is 24 mg/dL.
Consider `Cc1cc(C#N)cc2nc(-c3ccc(NC(=O)CN4CCN(c5ccc(C(F)(F)F)cn5)CC4)cc3)oc12`, for which, in experiment [1], the IC50 was determined as 15 nM. Further, in experiment [2], the Activity came to 21 mg/dL.
`CC(C)c1cc(C#N)cc2nc(-c3ccc(C(=O)NCC4CCN(c5ccc([N+](=O)[O-])cn5)CC4)cc3)oc12`: the IC50 in experiment [1] is > 10000 nM.
As to `Cc1ccc(OC(C)C)c(-c2ccc(N3CCC(CNC(=O)c4ccc(-c5nc6cc(C#N)cc(C(C)C)c6o5)cc4)CC3)nc2)c1`, the IC50 in experiment [1] is 22 nM. Also, in experiment [2], the Activity stood at 28 mg/dL.
Consider `Cc1cc(C#N)cc2nc(-c3ccc(NC(=O)CN4CCN(c5ccc(C(F)(F)F)cc5)CC4)cc3)oc12`, for which, in experiment [2], the Activity turned out to be 24 mg/dL.
For `CC(C)Oc1ccc(C(F)(F)F)cc1-c1ccc(N2CCC(CNC(=O)c3ccc(-c4nc5cc(C#N)cc(C(C)C)c5o4)cc3)CC2)nc1`, it took 28 nM to reach half-maximal inhibition in experiment [1] (IC50).
On the same count and under the same terms, next, `CC(C)(C)c1cc(C#N)cc2nc(-c3ccc(C(=O)NCC4CCN(c5ccc(C(F)(F)F)cn5)CC4)cc3)oc12`: 198 nM; `CC(C)Oc1ccccc1-c1ccc(N2CCC(CNC(=O)c3ccc(-c4nc5cc(C#N)cc(C(C)C)c5o4)cc3)CC2)nc1`: 29 nM; `Cc1cc(C#N)cc2nc(-c3ccc(NCC(O)CN4CCN(c5ccc(C(F)(F)F)cc5)CC4)cc3)oc12` (stereo not given): 18800 nM.
Consider `CC(C)c1cc(C#N)cc2nc(-c3ccc(C(=O)NCC4CCN(c5cccc(C(=O)O)n5)CC4)cc3)oc12`, for which, in experiment [1], the IC50 was > 10000 nM.
The same measure, in the same setting: next, `CC(C)COc1ccccc1-c1ccc(N2CCC(CNC(=O)c3ccc(-c4nc5cc(C#N)cc(C(C)C)c5o4)cc3)CC2)nc1`: 31 nM.
Compound `CC(C)c1cc(C#N)cc2nc(-c3ccc(C(=O)NCC4CCN(c5nccc(C(F)(F)F)n5)CC4)cc3)oc12` gave an IC50 in experiment [1] of 22 nM. Moreover, the Activity in experiment [2] came to 7 mg/dL.
In the case of `Cc1cc(C#N)cc2nc(-c3ccc(C(=O)N4CCN(c5ccc(C(F)(F)F)cc5)CC4)cc3)oc12`, half-maximal inhibition in experiment [1] (IC50) required 4030 nM.
In turn, `CC(C)c1cc(C#N)cc2nc(-c3ccc(C(=O)NCC4CCN(c5ccc(-c6ccccc6)cn5)CC4)cc3)oc12` yielded an IC50 in experiment [1] of 43 nM. The Activity in experiment [2] was 22 mg/dL.
Consider `N#Cc1cc(C2CC2)c2oc(-c3ccc(C(=O)NCC4CCN(c5ccc(C(F)(F)F)cn5)CC4)cc3)nc2c1`, for which, in experiment [1], the concentration for half-maximal inhibition (IC50) was 243 nM. That is a sub-micromolar value.
In the case of `Cc1cc(C#N)cc2nc(-c3ccc(C(O)CCN4CCN(c5ccc(C(F)(F)F)cc5)CC4)cc3)oc12` (stereo not given), in experiment [1], half-maximal inhibition (IC50) was put at 2250 nM.
Compound `COC(=O)c1ccc(N2CCC(CNC(=O)c3ccc(-c4nc5cc(C#N)cc(C(C)C)c5o4)cc3)CC2)nc1` showed a 50% inhibitory concentration (IC50) in experiment [1] of 114 nM.
On the same count and under the same terms, for `CC(C)c1ccccc1-c1ccc(N2CCC(CNC(=O)c3ccc(-c4nc5cc(C#N)cc(C(C)C)c5o4)cc3)CC2)nc1` the value was 19 nM; for `COC(Cc1ccc(-c2nc3cc(C#N)cc(C)c3o2)cc1)CN1CCN(c2ccc(C(F)(F)F)cc2)CC1` (stereo not given), 8940 nM; for `CC(C)c1cc(C#N)cc2nc(-c3ccc(C(=O)NCC4CCN(c5cccc(C(F)(F)F)n5)CC4)cc3)oc12`, 37 nM.
On the same count and under the same terms, for `Cc1cc(C#N)cc2nc(-c3ccc(CC(=O)CN4CCN(c5ccc(C(F)(F)F)cc5)CC4)cc3)oc12` the value was 5740 nM.
On the same count and under the same terms, next, `C=C(C)c1ccc(N2CCC(CNC(=O)c3ccc(-c4nc5cc(C#N)cc(C(C)C)c5o4)cc3)CC2)nc1`: 229 nM.
Turning to `N#Cc1cc(C(F)(F)F)c2oc(-c3ccc(C(=O)NCC4CCN(c5ccc(C(F)(F)F)cn5)CC4)cc3)nc2c1`, in experiment [1], the IC50 is 3190 nM.
Still for that read-out and setting: next, `C=C(C)c1cc(C#N)cc2nc(-c3ccc(C(=O)NCC4CCN(c5ccc(C(F)(F)F)cn5)CC4)cc3)oc12`: 131 nM.
Same read-out and setting: for `Cc1cc(C#N)cc2nc(-c3ccc(C(=O)NCCC4CCN(c5ccc(C(F)(F)F)cc5)CC4)cc3)oc12` the value was 11600 nM; for `Cc1ccc(-c2ccc(N3CCC(CNC(=O)c4ccc(-c5nc6cc(C#N)cc(C(C)C)c6o5)cc4)CC3)nc2)cc1`, 48 nM; for `Cc1cc(C#N)cc2nc(-c3ccc(OCCN4CCN(c5ccc(C(F)(F)F)cc5)CC4)cc3)oc12`, 4550 nM.
The same measure, in the same setting: for `Cc1cc(C#N)cc2nc(-c3ccc(C(=O)N(C)CC4CCN(c5ccc(C(F)(F)F)cc5)CC4)cc3)oc12` the value was 2610 nM.

The record behind these values is ChEMBL document CHEMBL1681632, “2-(4-carbonylphenyl)benzoxazole inhibitors of CETP: scaffold design and advancement in HDLc-raising efficacy” (Bioorg Med Chem Lett, 2011).
